Source: patent US12552767B2, “3-heteroaryl pyrrolidine and piperidine orexin receptor agonists” (Merck Sharp & Dohme LLC, priority 2020, dated 2026)

Target: T1, human OX2R (Homo sapiens, UniProt O43614)
T1 construct: expressed in transfected cells; host or cells: CHO (Chinese hamster ovary) cells, grown under G418 selection
T1 sequence (O43614 1-444): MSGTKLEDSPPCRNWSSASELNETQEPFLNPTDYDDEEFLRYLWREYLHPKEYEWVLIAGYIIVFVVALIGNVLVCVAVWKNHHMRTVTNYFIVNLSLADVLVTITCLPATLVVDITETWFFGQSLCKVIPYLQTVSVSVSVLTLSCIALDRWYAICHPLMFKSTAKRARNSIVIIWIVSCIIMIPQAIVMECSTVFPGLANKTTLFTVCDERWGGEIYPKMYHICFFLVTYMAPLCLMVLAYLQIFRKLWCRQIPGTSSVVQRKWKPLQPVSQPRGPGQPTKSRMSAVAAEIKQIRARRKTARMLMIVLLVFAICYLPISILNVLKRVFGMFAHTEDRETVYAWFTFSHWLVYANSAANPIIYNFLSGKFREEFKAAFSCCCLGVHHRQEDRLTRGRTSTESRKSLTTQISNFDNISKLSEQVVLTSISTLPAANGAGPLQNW
Experiment: IP-One (IPOne) orexin receptor agonist assay in CHO cells expressing human OX2R
Assay type: cell-based
Settings: for EC50: CHO cells expressing human OX2R, IP-One IP-1 detection, 2 hours incubation, four parameter logistic fit, read-out: OX2R Potency, EC50; for % of reference agonist maximal effect: human OX2R, percentage of sample raw value/mean max effect (reference compound at 1 uM with 100% activity)
Summary of the method: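 CHO cells stably expressing human OX2R were stimulated with compound (10-point ½-log dilutions) for 2 h at 37 °C. IP-1 accumulation was read by HTRF (IP-One, 665/620 nm). EC50 from a four-parameter fit; % effect relative to 1 μM reference agonist control.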

| EC50 [nM] | % of reference agonist maximal effect [%] | SMILES |
| --- | --- | --- |
| 2420 | 93.6 | CC(C)[C@H]1CC[C@@H](OC[C@H]2[C@@H](c3cc[nH]n3)CCCN2C(=O)NCc2ccccc2)CC1 (relative stereo) [Example 122, (CIS)-N-benzyl-2-((((CIS)-4-isopropylcyclohexyl)oxy)methyl)-3-(1H-pyrazol-3-yl)piperidine-1-carboxamide] |
| 6730 | 87.9 | CC(C)[C@H]1CC[C@@H](OC[C@H]2[C@@H](c3cc[nH]n3)CCCN2C(=O)NCC2CCCCC2)CC1 (relative stereo) [Example 123, (CIS)-N-(cyclohexylmethyl)-2-((((CIS)-4-isopropylcyclohexyl)oxy)methyl)-3-(1H-pyrazol-3-yl)piperidine-1-carboxamide] |
| 8200 | 92.3 | CC(C)[C@H]1CC[C@@H](OC[C@H]2[C@@H](c3cc[nH]n3)CCCN2C(=O)NC2CCCCC2)CC1 (relative stereo) [Example 124, (CIS)-N-cyclohexyl-2-((((CIS)-4-isopropylcyclohexyl)oxy)methyl)-3-(1H-pyrazol-3-yl)piperidine-1-carboxamide] |
| 22.4 | 99.1 | O=C(NCC1CCC1)N1CCC[C@H](c2cc[nH]n2)[C@@H]1CO[C@H]1CC[C@@H](c2ccccc2)CC1 (relative stereo) [Example 125, (CIS)-N-(cyclobutylmethyl)-2-((((CIS)-4-phenylcyclohexyl)oxy)methyl)-3-(1H-pyrazol-3-yl)piperidine-1-carboxamide] |
| 944 | 100 | COCC(C)NC(=O)N1CCC[C@H](c2cc[nH]n2)[C@@H]1CO[C@H]1CC[C@@H](c2ccccc2)CC1 (relative stereo) [Example 126, (CIS)-N-(1-methoxypropan-2-yl)-2-((((CIS)-4-phenylcyclohexyl)oxy)methyl)-3-(1H-pyrazol-3-yl)piperidine-1-carboxamide] |
| 4380 | 72 | O=C(NC1COC1)N1CCC[C@H](c2cc[nH]n2)[C@@H]1CO[C@H]1CC[C@@H](c2ccccc2)CC1 (relative stereo) [Example 127, (CIS)-N-(oxetan-3-yl)-2-((((CIS)-4-phenylcyclohexyl)oxy)methyl)-3-(1H-pyrazol-3-yl)piperidine-1-carboxamide] |
| 67.3 | 102.6 | CCNC(=O)N1CCC[C@H](c2ccn[nH]2)[C@@H]1CO[C@H]1CC[C@@H](c2ccccc2)CC1 (single isomer, unassigned) [Example 1, (CIS)-N-ethyl-2-((((CIS)-4-phenylcyclohexyl)oxy)methyl)-3-(1H-pyrazol-5-yl)piperidine-1-carboxamide] |
| 276 | 100.6 | CCNC(=O)N1CCC[C@H](c2ccn[nH]2)[C@@H]1CO[C@H]1CC[C@@H](C(C)C)CC1 (single isomer, unassigned) [Example 4] |
| 3190 | 99.6 | CCNC(=O)N1CCC[C@@H](c2ccn[nH]2)[C@H]1CO[C@H]1CC[C@@H](C(C)C)CC1 (single isomer, unassigned) [Example 5] |
| 2.3 | 100.1 | CCNC(=O)N1CCC[C@H](c2n[nH]cc2C)[C@@H]1CO[C@H]1CC[C@@H](c2cccc(F)c2)CC1 (single isomer, unassigned) [Example 11] |
| 414 | 100.0 | CCNC(=O)N1CCC[C@@H](c2n[nH]cc2C)[C@H]1CO[C@H]1CC[C@@H](c2cccc(F)c2)CC1 (single isomer, unassigned) [Example 12] |
| 54.7 | 98.8 | CCNC(=O)N1CCC[C@H](c2cc[nH]n2)[C@@H]1CO[C@H]1CC[C@@H](c2ccccc2)CC1 (single isomer, unassigned) [Example 18, (CIS)-N-ethyl-2-((((CIS)-4-phenylcyclohexyl)oxy)methyl)-3-(1H-pyrazol-3-yl)piperidine-1-carboxamide] |
| 682 | 97.4 | O=C(C1CC1)N1CCC[C@H](c2cc[nH]n2)[C@@H]1CO[C@H]1CC[C@@H](c2ccccc2)CC1 (single isomer, unassigned) [Example 20, cyclopropyl((CIS)-2-((((CIS)-4-phenylcyclohexyl)oxy)methyl)-3-(1H-pyrazol-3-yl)piperidin-1-yl)methanone] |
| 163 | 100.4 | CCc1c[nH]nc1[C@H]1CCCN(C(=O)OC)[C@H]1CO[C@H]1CC[C@@H](c2ccccc2)CC1 (single isomer, unassigned) [Example 43] |
| 79.4 | 100.2 | COC(=O)N1CCC[C@H](c2n[nH]cc2Cl)[C@@H]1CO[C@H]1CC[C@@H](c2ccccc2)CC1 (single isomer, unassigned) [Example 45] |
| > 10000 | 0 | COC(=O)N1CCC[C@@H](c2n[nH]cc2Cl)[C@H]1CO[C@H]1CC[C@@H](c2ccccc2)CC1 (single isomer, unassigned) [Example 46] |
| 795 | 99.0 | COC(=O)N1CCC[C@H](c2n[nH]cc2C(C)C)[C@@H]1CO[C@H]1CC[C@@H](c2ccccc2)CC1 (single isomer, unassigned) [Example 49] |
| > 10000 | 5.2 | COC(=O)N1CCC[C@@H](c2n[nH]cc2C(C)C)[C@H]1CO[C@H]1CC[C@@H](c2ccccc2)CC1 (single isomer, unassigned) [Example 50] |
| 227 | 99.0 | COC(=O)N1CCC[C@H](c2n[nH]cc2C#N)[C@@H]1CO[C@H]1CC[C@@H](c2ccccc2)CC1 (single isomer, unassigned) [Example 51] |
| > 10000 | 0 | COC(=O)N1CCC[C@@H](c2n[nH]cc2C#N)[C@H]1CO[C@H]1CC[C@@H](c2ccccc2)CC1 (single isomer, unassigned) [Example 52] |
| > 10000 | 15.7 | COC(=O)N1CCC[C@@H](c2n[nH]cc2CO)[C@H]1CO[C@H]1CC[C@@H](c2ccccc2)CC1 (single isomer, unassigned) [Example 54] |
| 97.5 | 100.8 | COC(=O)N1CCC[C@H](c2n[nH]cc2C(F)F)[C@@H]1CO[C@H]1CC[C@@H](c2ccccc2)CC1 (single isomer, unassigned) [Example 55] |
| > 10000 | 0 | CCNC(=O)N1CCCC(c2[nH]ncc2C)C1COC1CCC(C(C)C)CC1 (single isomer, unassigned) [Example 58, N-ethyl-2-(((4-isopropylcyclohexyl)oxy)methyl)-3-(4-methyl-1H-pyrazol-5-yl)piperidine-1-carboxamide] |
| 593 | 98.3 | CCNC(=O)N1CCCC(c2[nH]ncc2C)C1COC1CCC(C(C)C)CC1 (single isomer, unassigned) [Example 59, N-ethyl-2-(((4-isopropylcyclohexyl)oxy)methyl)-3-(4-methyl-1H-pyrazol-5-yl)piperidine-1-carboxamide] |
| 56.3 | 100 | CCNC(=O)N1CCCC(c2[nH]ncc2C)C1COC1CCC(C(C)C)CC1 (single isomer, unassigned) [Example 60, N-ethyl-2-(((4-isopropylcyclohexyl)oxy)methyl)-3-(4-methyl-1H-pyrazol-5-yl)piperidine-1-carboxamide] |
| 3510 | 87.4 | CCNC(=O)N1CCCC(c2[nH]ncc2C)C1COC1CCC(C(C)C)CC1 (single isomer, unassigned) [Example 61, N-ethyl-2-(((4-isopropylcyclohexyl)oxy)methyl)-3-(4-methyl-1H-pyrazol-5-yl)piperidine-1-carboxamide] |
| > 10000 | 11.9 | CCNC(=O)N1CCCC(c2nc[nH]n2)C1CO[C@H]1CC[C@@H](C(C)C)CC1 (single isomer, unassigned) [Example 62, N-ethyl-2-((((CIS)-4-isopropylcyclohexyl)oxy)methyl)-3-(1H-1,2,4-triazol-3-yl)piperidine-1-carboxamide] |
| 334 | 100.2 | CCNC(=O)N1CCCC(c2nc[nH]n2)C1CO[C@H]1CC[C@@H](C(C)C)CC1 (single isomer, unassigned) [Example 63, N-ethyl-2-((((CIS)-4-isopropylcyclohexyl)oxy)methyl)-3-(1H-1,2,4-triazol-3-yl)piperidine-1-carboxamide] |
| 227 | 99.9 | COC(=O)N1CCCC(c2nc(O)sc2Cl)C1COC1CCC(c2ccccc2)CC1 (single isomer, unassigned) [Example 67, Methyl 3-(5-chloro-2-hydroxythiazol-4-yl)-2-(((4-phenylcyclohexyl)oxy)methyl)piperidine-1-carboxylate] |
